Laboratory results as given in PMC12662691, “DDX3X Promotes Rotavirus Infection and Serves as an Antiviral Target” (Transboundary and Emerging Diseases, 2025).

Experiments:
MYAS33 RV strain [1] = experiment: EC50 determination of anti-RV activity by RT-qPCR, MYAS33 strain; format: cell-based; conditions: Rotavirus, 0.1 MOI, 24 h, read-out: EC50 against RV infection
Description: (§1) Cells were seeded into 96-well plates, allowed to adhere, followed by drug inoculation in a concentration gradient along with RV infection at 0.1 MOI. After 24 h, cells were collected, total RNA was extracted, reverse transcription was performed, and RV was detected by RT-qPCR. The EC50 of the drug was calculated.

MYAS33 RV strain [2] = experiment: Antiviral efficacy screen, western blot of viral proteins; format: cell-based, Rotavirus; conditions: range of drug concentrations
Description: (a) Drugs were selected by gene dependent and network dependent strategy based on VP4 interacting proteins. (b) Cells were treated with a range of drug concentrations, and then, infected with MYAS33 RV strain. Subsequently, the cells were collected and subjected to western blot analysis to detect viral proteins.
Cells were collected, washed with PBS, and digested with trypsin. The cells were then collected in PBS into centrifuge tubes. After centrifugation, the supernatant was discarded. The cells was lysed, and the resulting lysate was transferred to a new centrifuge tube. 5 × SDS-PAGE sample buffer was added, and the samples were boiled in a water bath. Subsequently, SDS-PAGE was performed, and the proteins were transferred onto nitrocellulose membranes. The membranes were blocked with 5% skim milk at room temperature, washed three times with TBST, and incubated overnight at 4°C with primary antibodies. After washing three times with TBST, corresponding secondary antibodies were added and incubated for 1 h at room temperature. Following three additional washes with TBST, ECL reagent was prepared and applied to the membrane. Finally, the membrane was exposed in a chemiluminescence imaging system.

MSLH14 RV strain [3] = experiment: EC50 determination of anti-RV activity by RT-qPCR, MSLH14 strain; format: cell-based, Rotavirus
Description: as §1

MYAS33 RV strain [4] = experiment: RK-33 time course of RV infection, RT-qPCR; format: cell-based, Rotavirus
Description: (§2) Figure 7 RK-33 inhibits RV infection. (a, b) Cells were incubated with 10 μM RK-33 and infected with MYAS33 RV strain. The viral detection was conducted at 3, 6, 12, and 24 hpi by RT-qPCR detection, and at 12 and 24 hpi by TCID50. (c, d) EC50 of RK-33 against MSLH14 and SA11 strains was measured. (e) Flowchart of in vivo drug experiment. (f) Weight gain rate of mice. (g) Intestinal virus titer detection in mice. (h) H&E staining of intestine. (i–l) Cytokine detection of spleen. Statistical significance is determined by Student's test (^∗p < 0.05; ^∗∗p < 0.01; ^∗∗∗p < 0.001; ^∗∗∗∗p < 0.0001). HD, high dose; LD, low dose; ns, not significant. […] The name RK-33 is printed only in the plot legends of panels a and b.
Total RNA was extracted from collected samples using TRIzol reagent (Sangon Biotech) and subsequently reverse transcribed into cDNA using a premix reverse transcriptase (Vazyme). For qPCR analysis, a SYBR Green qPCR Mix kit (Promega) was utilized in combination with a CFX96 system. All procedures were carried out following the manufacturers' guidelines as described previously.

MSLH14 RV strain [5] = experiment: In vivo drug experiment in RV-challenged neonatal mice; conditions: neonatal Kunming mice
Description: Pregnant Kunming mice were individually housed and bred until delivery. Neonatal mice were raised for 1 week. Mice were inoculated with 10^4 TCID50 units of the MSLH14 RV strain via gavage. Drug administration was performed with 0.005 mg/g (low dose group) or 0.01 mg/g (high dose group). The drugs were dissolved in a solvent formulated as follows: 10% DMSO, 40% PEG300, 5% Tween-80, and 45% normal saline. Viral titers in the small intestine were determined using the TCID50 method. Spleens were collected for total RNA extraction, followed by reverse transcription and cytokine detection. For histopathological examination, tissues were fixed with 4% paraformaldehyde, paraffin embedded, sectioned into slices, and stained with hematoxylin and eosin following standard protocols as previously described.

SA11 RV strain = experiment: EC50 determination of anti-RV activity by RT-qPCR, SA11 strain; format: cell-based, Rotavirus
Description: as §1

MYAS33 RV strain [6] = experiment: RK-33 viral titer by TCID50; format: cell-based, Rotavirus
Description: as §2

[7] = MSLH14, spleen, RT-qPCR, vs untreated controls

CC(COc1ccccc1Cc1ccccc1)N1CCCCC1 (centres unmarked) [benproperine phosphate]
EC50 (MYAS33 RV strain [1]): 4.69 µM
Inhibitory effect against RV infection (antiviral efficacy screen) (MYAS33 RV strain [2]): exhibited inhibitory effects

Clc1cccc(N2CCN(c3cnnc4c(Cl)cccc34)CC2)c1 [FiVe 1]
EC50 (MYAS33 RV strain [1]): 3.99 µM
Inhibitory effect against RV infection (antiviral efficacy screen) (MYAS33 RV strain [2]): exhibited inhibitory effects

COc1ccc(Cn2c3ncnc4c(ncn4Cc4ccc(OC)cc4)c-3nc2=O)cc1 [RK-33]
Inhibition of MSLH14 infection (MSLH14 RV strain [3]): also inhibits SA11 and MSLH14 infections
EC50 (MSLH14 RV strain [3]; Rotavirus, 0.1 MOI, 24 h, RT-qPCR, read-out: EC50 against MSLH14): 0.91 µM
EC50 (MYAS33 RV strain [1]): 1.05 µM
Inhibitory effect on RV (RT-qPCR) (MYAS33 RV strain [4]; 10 μM RK-33, MYAS33, 3 hpi): no significant inhibitory effect
Inhibitory effect on RV (RT-qPCR) (MYAS33 RV strain [4]; 10 μM RK-33, MYAS33, 6 hpi): pronounced antiviral activity
Inhibitory effect on RV (RT-qPCR) (MYAS33 RV strain [4]; 10 μM RK-33, MYAS33, 12 hpi): pronounced antiviral activity
Inhibitory effect on RV (RT-qPCR) (MYAS33 RV strain [4]; 10 μM RK-33, MYAS33, 24 hpi): pronounced antiviral activity
Inhibitory effect against RV infection (antiviral efficacy screen) (MYAS33 RV strain [2]): exhibited inhibitory effects
Intestinal lesions (H&E histopathology) (MSLH14 RV strain [5]; MSLH14, 5 days postinfection): alleviated intestinal lesions
Spleen IFNG level (MSLH14 RV strain [5]; [7]): significantly reduced levels
Spleen IL-1B level (MSLH14 RV strain [5]; [7]): significantly reduced levels
Spleen IL-6 level (MSLH14 RV strain [5]; [7]): significantly reduced levels
Spleen TNFA level (MSLH14 RV strain [5]; [7]): significantly reduced levels
Recovery of body weight (weight gain rate) (MSLH14 RV strain [5]; MSLH14 by gavage, 0.005 mg/g (low dose) or 0.01 mg/g (high dose), vs untreated controls): faster recovery of body weight
Intestinal viral titer (TCID50) (MSLH14 RV strain [5]; MSLH14 by gavage, 0.005 or 0.01 mg/g, small intestine, vs untreated controls): significantly reduced
Inhibition of SA11 infection (SA11 RV strain): also inhibits SA11 and MSLH14 infections
EC50 (SA11 RV strain; Rotavirus, 0.1 MOI, 24 h, RT-qPCR, read-out: EC50 against SA11): 0.86 µM
Viral titer (TCID50) (MYAS33 RV strain [6]; 10 μM RK-33, MYAS33, 12 h): inhibited MYAS33 strain infection
Viral titer (TCID50) (MYAS33 RV strain [6]; 10 μM RK-33, MYAS33, 24 h): inhibited MYAS33 strain infection

COCCCC/C(=N\OCCN)c1ccc(C(F)(F)F)cc1 [fluvoxamine]
EC50 (MYAS33 RV strain [1]): 14.8 µM
Inhibitory effect against RV infection (antiviral efficacy screen) (MYAS33 RV strain [2]): exhibited inhibitory effects

Cc1[nH]c2ccccc2c1CCNC(=O)c1cccs1 [CK-636]
EC50 (MYAS33 RV strain [1]): 5.3 µM
Inhibitory effect against RV infection (antiviral efficacy screen) (MYAS33 RV strain [2]): exhibited inhibitory effects

Cc1[nH]c2ccccc2c1CCNC(=O)c1ccccc1F [CK-666]
EC50 (MYAS33 RV strain [1]): 2.85 µM
Inhibitory effect against RV infection (antiviral efficacy screen) (MYAS33 RV strain [2]): exhibited inhibitory effects
